Activity calls are given as the source filed them.
Assays:
Mu-type opioid receptor = Mu-type opioid receptor (Homo sapiens, UniProt P35372); type: functional, cell-based;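 further: U2OS cells with beta-arrestin recruitment to OPRM1 by beta-gal complementation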
[1] = molecular target: 5-hydroxytryptamine receptor 2A (Mus musculus, UniProt P35363); type: functional, cell-based;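 further: CHO-K1 cells with tagged receptor and beta-arrestin; agonist potency measured as compound-induced activation of the receptor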
Sequence of 5-hydroxytryptamine receptor 2A (P35363 whole entry): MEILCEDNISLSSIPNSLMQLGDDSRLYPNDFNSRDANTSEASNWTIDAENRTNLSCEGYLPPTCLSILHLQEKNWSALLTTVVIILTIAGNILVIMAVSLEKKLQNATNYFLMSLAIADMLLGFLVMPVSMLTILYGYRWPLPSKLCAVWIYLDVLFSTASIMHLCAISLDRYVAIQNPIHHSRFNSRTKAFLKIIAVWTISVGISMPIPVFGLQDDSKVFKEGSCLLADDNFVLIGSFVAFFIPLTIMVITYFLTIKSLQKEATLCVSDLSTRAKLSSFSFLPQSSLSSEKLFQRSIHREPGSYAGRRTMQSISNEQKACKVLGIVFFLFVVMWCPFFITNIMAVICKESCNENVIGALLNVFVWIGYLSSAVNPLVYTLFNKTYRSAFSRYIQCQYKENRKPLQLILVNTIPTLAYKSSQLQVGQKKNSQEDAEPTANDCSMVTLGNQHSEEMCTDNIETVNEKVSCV

[2] = molecular target: T1, DNA repair protein RAD52 homolog (Homo sapiens, UniProt P43351); type: functional, biochemical
T1 sequence (P43351 whole entry): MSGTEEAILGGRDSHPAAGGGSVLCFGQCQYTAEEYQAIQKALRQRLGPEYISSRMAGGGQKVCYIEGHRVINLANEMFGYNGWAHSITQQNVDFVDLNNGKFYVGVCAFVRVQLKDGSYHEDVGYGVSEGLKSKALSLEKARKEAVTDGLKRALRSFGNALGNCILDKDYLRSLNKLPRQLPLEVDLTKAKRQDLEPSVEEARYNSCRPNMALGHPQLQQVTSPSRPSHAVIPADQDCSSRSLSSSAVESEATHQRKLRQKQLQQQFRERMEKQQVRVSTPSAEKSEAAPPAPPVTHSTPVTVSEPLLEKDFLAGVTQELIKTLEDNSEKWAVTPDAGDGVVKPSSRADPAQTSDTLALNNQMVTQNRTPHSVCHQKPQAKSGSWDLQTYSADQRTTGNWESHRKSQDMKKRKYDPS

[3] = cytotoxicity toward NIH3T3 fibroblasts, dose response, counter-screen, cell-based, ATP luminescence, mouse fibroblasts (AID 2010); type: functional;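 further: cells exposed to compound for about 90 hours before reading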
Streptococcus = assay: Group A Streptococcus viability loss, dose response, counter-screen for streptokinase expression inhibitor project, luminescence, BacTiterGlo (AID 1915); type: functional, organism-based;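 further: potency for reduction of bacterial viability or growth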
[4] = tested on: Streptococcus sp. 'group A'; assay: growth inhibition of control SK(-) GAS strain, dose response, counter-screen for streptokinase expression inhibitor project, luminescence, kanamycin, BacTiterGlo, confirmation (AID 1900); type: functional, organism-based
[5] = inhibitors of intracellular T. cruzi replication, confirmation, NIH3T3 host cells, beta-gal luminescence (AID 2044); type: functional, cell-based;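 further: intracellular parasites grown in NIH/3T3 mouse fibroblasts as host cells; luminescent beta-galactosidase reporter signal from transgenic T. cruzi replicating inside host cells; inhibitors lower the luminescence signal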
Streptokinase A = molecular target: T2, Streptokinase A (Streptococcus pyogenes serotype M1, UniProt P10520); assay: S. pyogenes streptokinase expression inhibitors, potency, dose response, plasminogen activation absorbance, OD405 (AID 1914); type: functional, Streptococcus pyogenes M1 GAS;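 further: secreted streptokinase activity via plasminogen activation per viability signal from cell pellet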
T2 sequence (P10520 whole entry): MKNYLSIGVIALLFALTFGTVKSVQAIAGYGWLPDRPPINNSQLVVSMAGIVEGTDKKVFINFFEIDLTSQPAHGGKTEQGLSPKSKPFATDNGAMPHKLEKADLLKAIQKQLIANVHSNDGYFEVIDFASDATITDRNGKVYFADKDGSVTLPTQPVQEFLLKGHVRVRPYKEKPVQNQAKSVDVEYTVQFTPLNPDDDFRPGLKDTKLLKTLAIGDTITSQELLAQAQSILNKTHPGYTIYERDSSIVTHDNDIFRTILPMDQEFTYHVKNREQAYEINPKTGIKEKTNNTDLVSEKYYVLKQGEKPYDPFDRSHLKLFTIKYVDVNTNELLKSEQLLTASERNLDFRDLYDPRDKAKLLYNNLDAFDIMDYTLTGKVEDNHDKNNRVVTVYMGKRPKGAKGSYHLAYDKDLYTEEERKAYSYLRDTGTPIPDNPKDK

[6] = molecular target: T3, Heat shock factor protein 1 (Mus musculus, UniProt P38532); assay: inhibition of MG132-induced HSE-luciferase signal, confirmation, cell-based, NIH3T3, luminescence, dose retest (AID 2382); type: functional;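 further: NIH3T3 fibroblasts with HSF1-driven luciferase reporter stressed by proteasome inhibitor MG132; luminescence from HSF1-driven luciferase expression after 8 hours of MG132 stress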
T3 sequence (P38532 whole entry): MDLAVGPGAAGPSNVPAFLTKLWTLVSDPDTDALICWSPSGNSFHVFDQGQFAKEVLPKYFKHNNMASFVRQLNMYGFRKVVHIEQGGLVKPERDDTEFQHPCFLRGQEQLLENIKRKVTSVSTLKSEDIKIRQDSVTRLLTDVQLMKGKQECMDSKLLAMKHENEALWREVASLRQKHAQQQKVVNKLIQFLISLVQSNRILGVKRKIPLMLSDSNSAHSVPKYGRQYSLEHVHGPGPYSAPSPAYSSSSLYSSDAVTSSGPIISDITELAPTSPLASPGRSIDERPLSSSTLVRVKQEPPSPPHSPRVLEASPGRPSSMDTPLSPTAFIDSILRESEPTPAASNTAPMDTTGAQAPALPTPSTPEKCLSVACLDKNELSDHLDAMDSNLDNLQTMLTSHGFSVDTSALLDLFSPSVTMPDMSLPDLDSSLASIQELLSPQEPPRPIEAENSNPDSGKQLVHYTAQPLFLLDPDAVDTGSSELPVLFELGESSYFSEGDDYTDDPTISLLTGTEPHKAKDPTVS

[7] = molecular target: T4, Corticotropin-releasing factor receptor 2/Corticotropin-releasing factor-binding protein (Homo sapiens, UniProt P24387+Q13324); assay: Dose Response confirmation of uHTS hits for small molecule antagonists of the CRF-binding protein and CRF-R2 receptor complex.; type: functional; conditions: read-out: IC50_Mean
T4 sequence (Q13324 whole entry): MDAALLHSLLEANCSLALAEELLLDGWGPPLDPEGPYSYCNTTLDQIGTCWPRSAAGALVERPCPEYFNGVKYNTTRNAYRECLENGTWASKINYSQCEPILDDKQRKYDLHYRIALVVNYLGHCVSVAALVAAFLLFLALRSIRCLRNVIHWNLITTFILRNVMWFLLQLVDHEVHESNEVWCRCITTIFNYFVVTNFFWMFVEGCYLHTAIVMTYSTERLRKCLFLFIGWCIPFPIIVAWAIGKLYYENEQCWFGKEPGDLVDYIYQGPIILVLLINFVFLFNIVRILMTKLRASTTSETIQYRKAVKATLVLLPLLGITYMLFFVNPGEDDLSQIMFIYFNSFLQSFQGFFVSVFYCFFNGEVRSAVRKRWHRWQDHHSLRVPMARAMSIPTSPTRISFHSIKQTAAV
T4 sequence (P24387 whole entry): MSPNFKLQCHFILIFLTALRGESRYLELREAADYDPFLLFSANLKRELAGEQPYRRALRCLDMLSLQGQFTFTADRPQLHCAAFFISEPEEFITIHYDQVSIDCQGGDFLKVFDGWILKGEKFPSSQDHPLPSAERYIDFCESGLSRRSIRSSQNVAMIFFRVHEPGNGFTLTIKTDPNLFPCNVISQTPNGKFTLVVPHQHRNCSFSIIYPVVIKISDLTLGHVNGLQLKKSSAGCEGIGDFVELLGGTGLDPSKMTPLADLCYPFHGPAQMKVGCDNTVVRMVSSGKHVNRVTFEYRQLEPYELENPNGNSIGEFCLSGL

[8] = inhibitors of firefly luciferase expression or activity, dose response, H4 neuroglioma cells, luminescence (AID 1990); type: functional, cell-based
[9] = Luminescence Cell-Based Dose Response HTS to Identify Inhibitors of 5'UTR Stem-Loop Driven Prion Protein mRNA Translation in H4 Neuroglioblastoma Cells. [Related pubchem assays: 1827 (Project Summary), 1813 (Primary HTS)]; type: functional
[10] = inhibitors of clade B AD8 Env fusion, dose response, cell-based, cherry-pick (AID 652062); type: functional;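 further: luciferase signal from cell-cell fusion driven by HIV-1 clade B AD8 Env; potency is for inhibitors of fusion seen as a drop in luminescence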
[11] = inhibitors of SNCA 5'UTR-driven reporter translation, confirmation, H4 neuroglioma cells, luminescence (AID 1988); type: functional, cell-based
[12] = CEM21 lymphoblast cell cytotoxicity, dose response, cytotoxicity control for viral fusion inhibitor project, CellTiter-Glo luminescence, cherry-picked (AID 652042); type: functional, cell-based;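 further: potency for signal decrease meaning cytotoxicity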
[13] = molecular target: T4, Corticotropin-releasing factor receptor 2/Corticotropin-releasing factor-binding protein; assay: activators of CRF receptor 2 with binding protein – uHTS hits, confirmation (AID 602473); type: functional; conditions: read-out: EC50_Mean
[14] = molecular target: T5, Replicative DNA helicase DnaB (Mycobacterium tuberculosis, UniProt P9WMR3); assay: DnaB intein splicing inhibitors, dose response, biochemical, cell-free fluorescence (AID 449749); type: functional
T5 sequence (P9WMR3 whole entry): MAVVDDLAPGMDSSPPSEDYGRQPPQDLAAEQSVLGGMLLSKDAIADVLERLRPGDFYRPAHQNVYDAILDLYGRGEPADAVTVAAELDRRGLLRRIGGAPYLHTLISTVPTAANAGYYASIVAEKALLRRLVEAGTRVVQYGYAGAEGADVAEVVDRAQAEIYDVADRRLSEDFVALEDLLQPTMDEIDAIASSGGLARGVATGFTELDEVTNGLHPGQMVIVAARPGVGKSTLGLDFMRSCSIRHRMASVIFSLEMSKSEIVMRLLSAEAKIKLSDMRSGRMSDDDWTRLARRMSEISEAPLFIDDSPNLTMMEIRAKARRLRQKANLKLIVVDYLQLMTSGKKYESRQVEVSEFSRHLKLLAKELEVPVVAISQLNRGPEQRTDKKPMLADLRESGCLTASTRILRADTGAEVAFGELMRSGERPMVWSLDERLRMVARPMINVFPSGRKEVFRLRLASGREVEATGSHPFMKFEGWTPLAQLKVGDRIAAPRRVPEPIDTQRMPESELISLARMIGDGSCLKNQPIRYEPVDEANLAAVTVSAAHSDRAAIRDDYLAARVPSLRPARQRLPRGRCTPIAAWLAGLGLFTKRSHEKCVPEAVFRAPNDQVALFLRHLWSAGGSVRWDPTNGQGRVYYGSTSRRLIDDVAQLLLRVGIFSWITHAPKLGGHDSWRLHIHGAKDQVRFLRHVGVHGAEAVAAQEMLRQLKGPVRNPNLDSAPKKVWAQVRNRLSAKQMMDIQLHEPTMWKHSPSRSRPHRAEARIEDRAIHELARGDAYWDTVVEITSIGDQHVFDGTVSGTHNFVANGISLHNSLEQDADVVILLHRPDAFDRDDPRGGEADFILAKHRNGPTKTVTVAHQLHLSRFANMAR

[15] = molecular target: T6, Probable nicotinate-nucleotide adenylyltransferase (Staphylococcus aureus (strain N315), UniProt P65502); type: functional, Staphylococcus aureus subsp. aureus N315; conditions: read-out: IC50_Mean;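 on IC50 Mean: confirmatory dose-response retesting of NadD inhibitor hits first found in an ultra-high-throughput screen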
T6 sequence (P65502 whole entry): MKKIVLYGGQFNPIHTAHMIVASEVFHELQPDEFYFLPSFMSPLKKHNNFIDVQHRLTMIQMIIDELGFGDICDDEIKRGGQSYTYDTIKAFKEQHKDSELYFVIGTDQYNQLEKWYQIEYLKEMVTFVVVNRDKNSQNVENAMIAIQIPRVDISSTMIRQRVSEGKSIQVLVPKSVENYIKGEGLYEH

[16] = molecular target: T6, Probable nicotinate-nucleotide adenylyltransferase; type: functional, Staphylococcus aureus subsp. aureus N315
Protein RecA = molecular target: T7, Protein RecA (Mycobacterium tuberculosis, UniProt P9WHJ3); assay: Fluorescence Cell-Free Homogeneous Dose Retest to Identify Inhibitors of RecA-Intein Splicing Activity. [Related pubchem assays (depositor defined):AID2097, AID2223, AID489010, AID492950]; type: functional
T7 sequence (P9WHJ3 whole entry): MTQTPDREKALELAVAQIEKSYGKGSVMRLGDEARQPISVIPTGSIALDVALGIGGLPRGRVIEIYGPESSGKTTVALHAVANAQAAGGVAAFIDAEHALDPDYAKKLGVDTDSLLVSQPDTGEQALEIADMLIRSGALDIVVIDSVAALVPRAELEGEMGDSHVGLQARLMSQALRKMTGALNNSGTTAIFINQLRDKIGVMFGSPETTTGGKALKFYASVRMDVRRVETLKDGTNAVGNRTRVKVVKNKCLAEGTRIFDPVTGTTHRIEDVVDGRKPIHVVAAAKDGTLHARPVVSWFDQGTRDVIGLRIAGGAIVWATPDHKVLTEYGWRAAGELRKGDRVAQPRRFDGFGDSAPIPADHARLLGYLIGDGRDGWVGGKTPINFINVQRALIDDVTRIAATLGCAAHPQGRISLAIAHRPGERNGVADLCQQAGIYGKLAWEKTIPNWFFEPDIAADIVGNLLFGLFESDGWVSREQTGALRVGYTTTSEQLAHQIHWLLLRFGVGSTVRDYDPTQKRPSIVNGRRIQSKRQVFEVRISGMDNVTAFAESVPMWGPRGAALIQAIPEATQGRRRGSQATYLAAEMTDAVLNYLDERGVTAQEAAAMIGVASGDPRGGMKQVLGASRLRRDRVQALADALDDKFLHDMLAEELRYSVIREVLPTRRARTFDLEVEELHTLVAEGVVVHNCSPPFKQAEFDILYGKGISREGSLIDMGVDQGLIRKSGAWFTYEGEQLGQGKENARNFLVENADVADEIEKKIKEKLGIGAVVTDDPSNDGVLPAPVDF

[17] = inhibitors of HIV Env-driven cell fusion, dose response, cherry-pick (AID 652057); type: functional, cell-based
[18] = intracellular Trypanosoma cruzi inhibitors in host cells – cell-based, plate reader, cherry-pick samples, set 3, dose response (AID 651818); type: functional;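 further: compounds incubated with infected cells for about four days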
[19] = ZM109 Env clade C HIV-1 fusion inhibitors, dose response, HeLa effector, CEM target cells, luciferase, cherry-pick (AID 652058); type: functional, cell-based
[20] = off-target signal loss in HeLa-CEM21 co-culture – HeLa F-luc CTL cells, cherry-picked, counter-screen for HIV-1 Env fusion inhibitor project, dose response (AID 652040); type: functional, cell-based;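 further: potency for signal decrease marking cytotoxic or nonspecific inhibition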

Sequence of Mu-type opioid receptor (P35372 whole entry): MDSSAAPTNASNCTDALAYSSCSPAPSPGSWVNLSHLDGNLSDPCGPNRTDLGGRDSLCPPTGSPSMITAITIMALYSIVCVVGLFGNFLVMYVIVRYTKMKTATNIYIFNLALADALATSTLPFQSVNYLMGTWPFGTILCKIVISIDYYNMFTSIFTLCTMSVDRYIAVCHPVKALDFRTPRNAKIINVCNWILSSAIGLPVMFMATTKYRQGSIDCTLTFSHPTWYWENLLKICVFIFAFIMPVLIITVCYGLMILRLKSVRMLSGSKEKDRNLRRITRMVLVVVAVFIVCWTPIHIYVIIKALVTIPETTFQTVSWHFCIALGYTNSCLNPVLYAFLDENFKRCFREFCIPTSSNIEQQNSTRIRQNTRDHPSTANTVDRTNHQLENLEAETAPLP

O=S(=O)(c1ccc(OCC(O)CN2CCN(c3ccccc3)CC2)cc1)N1CCOCC1 (stereo not drawn)
EC50 (Mu-type opioid receptor): 92.4 µM (inactive)
EC50 [1]: 0.481 µM (active)

CN(C)S(=O)(=O)c1ccc(Cl)c(NC(=O)CN2CCc3ccccc3C2)c1
EC50 (Mu-type opioid receptor): 92.5 µM (inactive)
EC50 [1]: 1.75 µM (active)

Cc1ccc2nc(N(CCCN(C)C)C(=O)c3ccc(S(=O)(=O)N4CCCCCC4)cc3)sc2c1
AC50 [2]: 30.7 µM (active)
EC50 [3]: > 60 µM (not active)
EC50 (Streptococcus): > 150 µM (not active)
EC50 [4]: > 150 µM (not active)
EC50 [5]: 0.125 µM (active)
EC50 (Streptokinase A): > 150 µM (not active)
EC50 [6]: 109 µM (active)

COC(=O)c1ccc(C(=O)NC2CCCc3c2cnn3-c2ccc(C)c(C)c2)cc1 (stereo not drawn)
IC50 [7]: > 47.1 µM (inactive)
EC50 [8]: 8.89 µM (inconclusive)
EC50 [9]: > 120 µM (not active)
AC50 [10]: 18.9 µM (active)
EC50 [11]: 0.997 µM (active)
AC50 [12]: 19.4 µM (active)
EC50 [13]: > 53 µM (inactive)

O=C(NCCN1CCN(c2ccccc2F)CC1)C1CCCN(S(=O)(=O)c2c[nH]cn2)C1 (stereo not drawn)
EC50 (Mu-type opioid receptor): 92.5 µM (inactive)
EC50 [1]: 0.895 µM (active)

O=C(Cc1cc(O)[nH]n1)N/N=C/C=C/c1ccccc1
AC50 [14]: 3.17 µM (active)
IC50 [15]: 23.5 µM (active)
IC50 [16]: 7.45 µM (active)
EC50 (Protein RecA): 2.76 µM (active)

C[C@@H]1CN([C@@H](C)CO)C(=O)c2cccc(NS(=O)(=O)c3ccc(F)cc3)c2O[C@@H]1CN(C)Cc1ccc(-c2ccccc2)cc1
AC50 [17]: 22.4 µM (active)
AC50 [18]: 3.81 µM (active)
AC50 [19]: 26.5 µM (active)
AC50 [12]: 48.1 µM (active)

COC(=O)[C@@]12C[C@@H](CC(=O)NCc3cccc(C(F)(F)F)c3)C(=O)N(Cc3ccco3)C1=CCC(C)(C)C2
AC50 [17]: 4.26 µM (active)
AC50 [20]: 8.92 µM (active)
AC50 [19]: 8.24 µM (active)
AC50 [10]: 20.9 µM (active)
AC50 [12]: 50 µM (active)
